Measured values reported in US20120052057A9, “METHOD FOR SELECTING RESPONDERS TO BLOCKADE OF INTEGRIN RECEPTORS” (priority 2007, published 2012).
“Also recorded” adds a separate entry of the source.

Key:
[1] = target: T1, α2β1 integrin receptors (Homo sapiens, UniProt P05556+P17301); test: PFA-100 platelet function analysis, whole blood closure time; format: cell-based; conditions: Collagen/ADP cartridges, vs untreated control
T1 construct: endogenous in cells; host or cells: platelets in anticoagulated whole blood of healthy donors
Protocol: The responsiveness of the genotyped healthy volunteers to a treatment involving the blockade of α2β1 integrin receptors was assessed by measuring the effect of synthetic α2β1 integrin inhibitors, such as sulphonamide derivatives disclosed e.g. in WO 2005/090298, on whole blood closure time in PFA-100 platelet function analysis. The PFA-100 analyzer is a high shear-inducing device that simulates primary haemostasis after injury of a small vessel. The system comprises a test-cartridge containing a biologically active membrane coated with collagen plus adenosine diphosphate (ADP). An anticoaculated whole blood sample is run through a capillary under a constant vacuum. […] Synthetic α2β1 integrin inhibitor was added to the whole blood sample obtained from each healthy volunteer, and the closure time was measured with PFA-100. […]
The effect of a synthetic α2β1 integrin inhibitor, sodium salt of 4-({[3-(4-fluorophenyl)phenyl]sulfonyl}amino)phenyl phenyl ketone (BTT-3016), on whole blood closure time in PFA-100 analysis was determined for donors representing each genotypic population. […] Samples were incubated at room temperature for 10 min., dispensed into PFA Collagen/ADP cartridges, and closure time was determined with PFA-100 (Dade Behring).

[2] = target: T2, α2 integrin over expressing CHO cell clone (CHO-α2) (Homo sapiens, UniProt P17301); test: Binding of C^14-labeled integrin inhibitor to CHO-α2 cells; conditions: for binding of labeled compound in the presence of EDTA: CHO-α2 cells, 20 mM EDTA, 10 μM compound
T2 construct: expressed in transfected cells; host or cells: CHO cell clone over-expressing α2 integrin (CHO-α2)
Protocol: (§1) The binding of C^14-labeled integrin inhibitory compound, hydrochloride salt of [4-(dimethylamino)phenyl]{[3-(4-fluorophenyl)phenyl]-sulfonyl}methylamine, was studied with CHO-wt cells and α2 integrin over expressing CHO cell clone (CHO-α2). CHO-wt cells have no collagen receptor integrins on their cell surface. Cells were fixed in 2% formaldehyde in PBS. After that cells were washed and suspended in reaction buffer (50 mM Tris-HCl pH 7.4, 5 mM MgCl2). To all samples 10 μM C^14-labeled inhibitory compound was added and the cells were incubated in the presence or absence of 20 mM EDTA for 1 h in +4° C. 20000 cells from each sample were loaded to GF/B glass microfibre filter (Whatman) and the samples were washed with 10 mL of the reaction buffer. The membranes were put to scintillation buffer (Optiphase HiSafe3, Perkin Elmer) and the activity was measured with the scintillation counter (Wallac 1415).

[3] = system: CHO-wt cells; test: Binding of C^14-labeled integrin inhibitor to CHO-wt cells; conditions: 20 mM EDTA, 10 μM compound, listed as C^u-labeled integrin inhibitor
Protocol: as §1

T2 sequence (P17301 30-1181): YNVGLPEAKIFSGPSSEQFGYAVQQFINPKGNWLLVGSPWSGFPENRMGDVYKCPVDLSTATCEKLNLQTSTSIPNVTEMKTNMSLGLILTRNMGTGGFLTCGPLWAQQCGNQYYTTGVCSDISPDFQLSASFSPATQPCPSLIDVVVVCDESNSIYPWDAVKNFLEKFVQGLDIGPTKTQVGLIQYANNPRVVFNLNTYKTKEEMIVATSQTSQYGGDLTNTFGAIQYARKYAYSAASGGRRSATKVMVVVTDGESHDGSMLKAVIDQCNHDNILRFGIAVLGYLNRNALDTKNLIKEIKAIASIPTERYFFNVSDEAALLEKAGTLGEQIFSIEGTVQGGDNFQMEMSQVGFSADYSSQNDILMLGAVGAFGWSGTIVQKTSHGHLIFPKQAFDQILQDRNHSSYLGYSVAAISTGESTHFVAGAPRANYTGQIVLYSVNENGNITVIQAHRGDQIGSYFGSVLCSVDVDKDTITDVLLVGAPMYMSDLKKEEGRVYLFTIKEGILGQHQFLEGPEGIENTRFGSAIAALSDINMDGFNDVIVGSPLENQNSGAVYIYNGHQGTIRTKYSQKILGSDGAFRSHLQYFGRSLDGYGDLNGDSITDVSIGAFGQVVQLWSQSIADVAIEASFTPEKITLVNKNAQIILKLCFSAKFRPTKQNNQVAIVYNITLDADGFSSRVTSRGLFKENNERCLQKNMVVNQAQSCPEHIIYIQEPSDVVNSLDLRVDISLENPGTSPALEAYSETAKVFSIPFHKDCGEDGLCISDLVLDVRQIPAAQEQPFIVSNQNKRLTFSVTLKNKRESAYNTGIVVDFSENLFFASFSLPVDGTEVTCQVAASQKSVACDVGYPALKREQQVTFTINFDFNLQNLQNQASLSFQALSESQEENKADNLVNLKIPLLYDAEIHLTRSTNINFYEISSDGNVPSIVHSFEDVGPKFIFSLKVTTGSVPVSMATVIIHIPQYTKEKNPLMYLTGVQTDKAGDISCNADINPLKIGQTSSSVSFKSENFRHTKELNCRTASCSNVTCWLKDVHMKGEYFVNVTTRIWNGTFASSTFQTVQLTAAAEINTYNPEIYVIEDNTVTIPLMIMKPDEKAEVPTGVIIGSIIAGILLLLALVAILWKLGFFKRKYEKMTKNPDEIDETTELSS
T2 sequence (P05556 21-798 partner): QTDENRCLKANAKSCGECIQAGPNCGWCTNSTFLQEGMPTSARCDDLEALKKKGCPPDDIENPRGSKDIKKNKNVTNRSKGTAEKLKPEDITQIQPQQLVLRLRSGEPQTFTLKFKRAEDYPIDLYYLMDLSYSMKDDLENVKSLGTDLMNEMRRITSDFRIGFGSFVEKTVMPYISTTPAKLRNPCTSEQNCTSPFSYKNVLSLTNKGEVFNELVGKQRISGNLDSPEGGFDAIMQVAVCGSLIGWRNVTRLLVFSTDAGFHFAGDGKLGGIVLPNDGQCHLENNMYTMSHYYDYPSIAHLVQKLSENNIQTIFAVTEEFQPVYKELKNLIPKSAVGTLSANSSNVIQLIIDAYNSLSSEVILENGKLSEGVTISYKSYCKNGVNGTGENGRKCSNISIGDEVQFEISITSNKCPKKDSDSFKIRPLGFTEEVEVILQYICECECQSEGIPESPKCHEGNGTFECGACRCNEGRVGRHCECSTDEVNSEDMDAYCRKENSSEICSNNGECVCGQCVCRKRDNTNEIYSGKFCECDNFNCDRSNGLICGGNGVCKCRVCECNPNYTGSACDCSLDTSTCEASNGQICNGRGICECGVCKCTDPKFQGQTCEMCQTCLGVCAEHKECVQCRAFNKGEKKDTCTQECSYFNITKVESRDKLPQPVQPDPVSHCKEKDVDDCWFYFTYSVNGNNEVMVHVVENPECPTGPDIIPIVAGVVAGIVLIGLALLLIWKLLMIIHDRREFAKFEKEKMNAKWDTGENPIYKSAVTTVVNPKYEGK
T1 sequence (P17301 30-1181): as the sequence (P17301 30-1181) above
T1 sequence (P05556 21-798): as the sequence (P05556 21-798 partner) above

| binding of labeled compound in the presence of EDTA [2] | binding of labeled compound in the presence of EDTA ([2]; listed as C^u-labeled integrin inhibitor) | SMILES | effect on whole blood closure time ([1]; donors with high α2β1 expression (MEF≧35), genotype TT807 or CT807) | effect on whole blood closure time ([1]; donors with low integrin expression, genotype CC807) | binding of labeled compound to cells ([2]; 10 μM C^14-labeled compound, 1 h, +4° C, CHO-α2 compared with CHO-wt) | binding of labeled compound in the presence of EDTA [3] |
| --- | --- | --- | --- | --- | --- | --- |
|  |  | O=C(c1ccccc1)c1ccc(NS(=O)(=O)c2cccc(-c3ccc(F)cc3)c2)cc1 [BTT-3016, 4-({[3-(4-fluorophenyl)phenyl]sulfonyl}amino)phenyl phenyl ketone] | increases the blood closure time; also recorded: increase the closure time statistically significantly | non-responsive; also recorded: not efficacious |  |  |
| could be inhibited | EDTA inhibits the binding | CN(C)c1ccc(NCS(=O)(=O)c2cccc(-c3ccc(F)cc3)c2)cc1 [[4-(dimethylamino)phenyl]{[3-(4-fluorophenyl)phenyl]-sulfonyl}methylamine] |  |  | bound more efficiently to CHO-α2 cells than to CHO-wt cells | not to CHO-wild type (wt) cells |
